Measured values as given in patent publication US20050267067A1, “Radical reaction inhibitors, method for inhibition of radical reactions, and use thereof” (priority 2002, published 2005).

Key:
[1] = Modification of L-lysine by lipid peroxides (protein carbonyl, OLAARPs); settings: for OLAARPs Formation: (%) / Protein carbonyl Formation: (%): L-lysine, versus no saccharide; for Formed OLAARPs / Formed Protein carbonyl: 37° C., 24 hours
Experimental: In this experiment, saccharide solutions were prepared to give an equal total saccharide molar concentration in each solution.
As a negative control, PBS was used.
To five milliliters of either of the above saccharide solutions for testing or the negative control was added 10 mg of calf serum albumin (BSA) or L-lysine, followed by dissolving. To each of the resulting solutions was added 25 μg of 2,4-decadienal or malondialdehyde (MDA) as a lipid peroxide, followed by reaction at 37° C. for 24 hours. After completion of the reaction, protein carbonyl and reaction products of oxidized lipids/aminoacids (OLAARPs) formed as aldehyde adducts were quantified on the calorimetric method. […] The formation levels of protein carbonyl and OLAARPs were determined based on the absorbances obtained in this experiment, in terms of the molar absorbance coefficient for each molecule as disclosed in Biochim. Biophys. Acta, No. 1,258, pp. 319-327 (1985).
To each of the resulting mixtures was added 600 μl of 30% trichloroacetic acid, and the mixture was allowed to stand at 0° C. for one hour and centrifuged at 10,000 rpm for 15 min to obtain a precipitate, followed by washing the resulting precipitate four times with two milliliters of ethanol/ethylacetate (1:1), respectively, adding 1.5 ml of 6M-guanidine hydrochloride/20 mM-NaPi/TFA (pH 2.3) to the resultant, allowing the mixture to stand at 37° C. for 30 min, and measuring the absorbance of the resulting mixture at a wavelength of 580 nm, ε=35,000 M^−1 cm^−1. […] To any one of the resulting mixtures was added two milliliters of a 12.5 mM DNPH/2.5 N-hydrochloride solution, and the resulting mixture was allowed to stand at 45° C. for 30 min, followed by measuring the absorbance of the resulting mixture at a wavelength of 580 nm, E=35,000 M^−1 cm^−1.

[2] = Oxidation of rat small intestinal mucosal enzyme solution by AAPH (conjugated diene, TBARS); format: biochemical
Experimental: As a model system for examining the influence of cyclotetrasaccharide on small intestinal mucous disorders, there was provided a system for examining the influence of cyclotetrasaccharide on the oxidation of a rat small intestinal mucosal enzyme solution by 2,2-azo-bis(2-amidinopropane)-dihydrochloric acid (AAPH).
To two grams of a rat small intestinal mucosal acetone powder, commercialized by Sigma Chemical Company, St. Louis, Mo., USA, was added 20 ml of 50 mM PBS (pH 7.2) and homogenized in ice bath. The mixture was centrifuged at 10,000 rpm for 10 min to obtain a supernatant for use as a rat small intestinal mucosal enzyme solution containing 10 mg/ml of proteins. A half milliliter of the rat small intestinal mucosal enzyme solution, 0.5 ml of a 100 mM AAPH solution, and 0.5 ml of a 200 mM of the crystalline cyclotetrasaccharide pentahydrate prepared in Experiment 1-1 were mixed, followed by incubation at 37° C. for […]. During the incubation, the mixture was sampled at two and six hours after initiating the incubation for quantifying the formed conjugated diene, while the specimens sampled at six hours after initiating the incubation were quantified for the formed TBARS.

[3] = Radical oxidation of linoleic acid by AAPH (conjugated diene, TBARS); settings: for Formed TBARS / Formed conjugated diene: 37° C., AAPH; for Conjugated diene formation: (%) / TBARS formation: (%): versus system with no cyclotetrasaccharide
Excerpt: As a negative control, a system of PBS with no cyclotetrasaccharide was provided and measured similarly as above. Conjugated diene was quantified by measuring the absorbance of test samples at a wavelength of 234 nm according to the method by Okamura et al., in Journal of Agricultural and Food Chemistry, Vol. 42, page 1,612 (1994). TABRS was quantified by allowing the sampled test specimens to react with thiobarbituric acid and measured for absorbance of the reaction mixture at a wavelength of 532 nm according to the method by Ohgawara et al., in Journal of Lipid Research, Vol. 19, page 1,053 (1978). The quantification of the formed TBARS in test samples was determined with a calibration curve provided in such a manner of diluting 1,1,3,3-tetraethoxypropane with ethanol into 10, 50 and 100 μg/ml dilutes, allowing the dilutes with thiobarbituric acid similarly as the test samples, measuring the absorbance of the resulting mixtures similarly as above, and drawing calibration curve based on the measured absorbances and the amount of TBARS calculated theoretically. The quantification of the formed conjugated diene in the test samples was determined by calculating the absorbances of the samples obtained in this experiment, based on the molar absorbance coefficient of molecules disclosed in Journal of Agricultural and Food Chemistry, Vol. 42, page 1,612 (1994). Tables 4 and 5 show the results on measurement for the formation level of conjugated diene and TBARS, respectively.

[4] = added lipid peroxide 2,4-decadienal
[5] = added lipid peroxide malondialdehyde (MDA)
[6] = 2,4-decadienal, listed as cyclotetrasaccharide
[7] = MDA, listed as cyclotetrasaccharide
[8] = reaction time 6 hr, listed as cyclotetrasaccharide

## OC[C@H]1O[C@H](O[C@H]2O[C@H](CO)[C@@H](O)[C@H](O)[C@H]2O)[C@H](O)[C@@H](O)[C@@H]1O [α, α-Trehalose, α, α-trehalose, reference compound]
[1]; 2,4-decadienal
  OLAARPs Formation: (%): (70) %
  Protein carbonyl Formation: (%): (55) %
[1]; MDA
  OLAARPs Formation: (%): (38) %
  Protein carbonyl Formation: (%): (67) %
[1]; [4]
  Formed OLAARPs: 5.72 μmol/g-L-lysine
  Formed Protein carbonyl: 7.47 μmol/g-L-lysine
[1]; [5]
  Formed OLAARPs: 3.24 μmol/g-L-lysine
  Formed Protein carbonyl: 3.99 μmol/g-L-lysine

## OCC1OC2OCC3O[C@H](O[C@H]4C(O)C(CO)OC(OCC5O[C@H](O[C@@H](C1O)C2O)C(O)C(O)[C@@H]5O)C4O)C(O)C(O)[C@@H]3O (stereo partly drawn) [Cyclotetrasaccharide, cyclo{→6}-α-D-glucopyranosyl-(1→3)-α-D-glucopyranosyl-(1→6)-α-D-glucopyranosyl-(1→3)-α-D-glucopyranosyl-(1→}]
[1]; 2,4-decadienal
  OLAARPs Formation: (%): (67) %
  Protein carbonyl Formation: (%): (48) %
[1]; [6]
  OLAARPs Formation: (%): about 67%
  Protein carbonyl Formation: (%): about 48%
[1]; MDA
  OLAARPs Formation: (%): (39) %
  Protein carbonyl Formation: (%): (66) %
[1]; [7]
  OLAARPs Formation: (%): about 39%
  Protein carbonyl Formation: (%): about 66%
[1]; [4]
  Formed OLAARPs: 5.44 μmol/g-L-lysine
  Formed Protein carbonyl: 6.42 μmol/g-L-lysine
[1]; [5]
  Formed OLAARPs: 3.39 μmol/g-L-lysine
  Formed Protein carbonyl: 3.93 μmol/g-L-lysine
[2]; reaction time 0 hr, AAPH, 37° C.
  Formed conjugated diene: 0.00 μg/mg-protein
[2]; reaction time 2 hr, AAPH, 37° C.
  Formed conjugated diene: 2.46 μg/mg-protein
[2]; reaction time 2 hr, versus system with no cyclotetrasaccharide
  Conjugated diene formation: (%): (15) %
[2]; reaction time 6 hr, AAPH, 37° C.
  Formed conjugated diene: 61.84 μg/mg-protein
[2]; reaction time 6 hr, versus system with no cyclotetrasaccharide
  Conjugated diene formation: (%): (60) %
[2]; six hours after initiating the incubation, AAPH, 37° C.
  Formed TBARS: 3.71 µg/mg-protein
[2]; six hours, versus system with no cyclotetrasaccharide
  TBARS formation (%): (61) %
[3]; reaction time 0 hr
  Formed TBARS: 0.00 μg/g-linoleic acid
  Formed conjugated diene: 0.27 μg/g-linoleic acid
  Conjugated diene formation: (%): (100) %
[3]; reaction time 1 hr
  Formed TBARS: 1.52 μg/g-linoleic acid
  Formed conjugated diene: 5.16 μg/g-linoleic acid
  Conjugated diene formation: (%): (55) %
  TBARS formation: (%): (55) %
[3]; reaction time 2 hr
  Formed TBARS: 3.55 μg/g-linoleic acid
  Formed conjugated diene: 9.15 μg/g-linoleic acid
  Conjugated diene formation: (%): (51) %
  TBARS formation: (%): (35) %
[3]; reaction time 6 hr
  Formed TBARS: 7.97 μg/g-linoleic acid
  Formed conjugated diene: 23.83 μg/g-linoleic acid
  Conjugated diene formation: (%): (40) %
[3]; reaction time 6 hr, listed as Cyclotetra-saccharide
  TBARS formation: (%): (30) %
[3]; [8]
  Conjugated diene formation: (%): about 40%
  TBARS formation: (%): about 30%
